Laboratory results taken from PMC6428247, “Potent inhibitors of equine steroid isomerase EcaGST A3-3” (PLoS ONE, 2019).
Where “and” joins values, the source holds several entries; their conditions need not be identical. Equal values may be shown once. Where a name gives a salt, the structure may show the parent alone.

Tests used:
[1] = molecular target: T1, EcaGST A3-3 (Equus caballus, UniProt M9ZT87); test: Inhibition of EcaGST A3-3 activity, GSH conjugation with CDNB; assay type: biochemical, Equus ferus caballus; conditions: for inhibition at 10 µM: read-out: Inhibition (%) of EcaGST A3-3; for IC50: 100 mM sodium phosphate pH 6.5, 30°C, read-out: IC50 EcaGST A3-3, substrate CDNB
T1 sequence (M9ZT87 entry or part of it): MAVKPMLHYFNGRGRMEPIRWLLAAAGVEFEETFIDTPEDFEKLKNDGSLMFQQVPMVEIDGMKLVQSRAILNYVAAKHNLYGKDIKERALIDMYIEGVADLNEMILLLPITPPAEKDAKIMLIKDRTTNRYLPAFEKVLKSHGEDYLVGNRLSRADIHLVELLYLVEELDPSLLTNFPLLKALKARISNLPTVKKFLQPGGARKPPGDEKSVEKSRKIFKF
Method: The final solvent concentration in the reaction system was kept at 5% (v/v) as a maximum.
(§1) The conjugation of GSH with the electrophilic substrate CDNB was used as a biochemical assay for general activity measurements. Screening of the US Drug library for inhibition was done in triplicates in 96-well plates in a Thermo Scientific Multiskan GO spectrophotometer. The conjugation activity at 30°C was monitored at 340 nm for 1 min in 0.1 M sodium phosphate buffer at pH 6.5 and 10 μM inhibitor concentration in a final volume of 300 μL. Initial concentrations of GSH and CDNB were 1 mM.
Assay conditions for inhibition measurements of enzyme activity with CDNB were the following: EcaGST A3-3 15 nM, initial concentrations of GSH and CDNB 1 mM, inhibitor concentrations varying from 0.029 μM to 15 μM, in 100 mM Na2HPO4/NaH2PO4 at pH 6.5.
The reactions were followed spectrophotometrically for 1 min at 30°C using a Shimadzu UV-2501 PC spectrophotometer (Shimadzu Inc.). All experiments included triplicate measurements in each data point.
The equation for competitive inhibition fitted by non-linear regression was v=Vmax[S]/KM(1+[I]/Ki)+[S] where [S] is the substrate concentrations and [I] is the inhibitor concentration.

[2] = molecular target: T2, HsaGST A3-3 (Homo sapiens, UniProt Q16772); test: Inhibition of HsaGST A3-3 CDNB activity; assay type: biochemical; conditions: 1 mM GSH, 1 mM CDNB, pH 6.5, 30°C; for IC50: CDNB activity
T2 construct: made in house
T2 sequence (Q16772 1-222): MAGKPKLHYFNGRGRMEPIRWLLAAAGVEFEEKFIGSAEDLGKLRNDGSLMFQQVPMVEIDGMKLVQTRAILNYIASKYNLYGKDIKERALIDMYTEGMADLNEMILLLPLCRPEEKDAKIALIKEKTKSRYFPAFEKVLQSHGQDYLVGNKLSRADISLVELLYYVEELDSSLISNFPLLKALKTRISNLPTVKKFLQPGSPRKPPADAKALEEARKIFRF
Method: (§2) EcaGST A3-3 [10], HsaGST A3-3 [12] and HsaGST M2-2 [13] were cloned, expressed and purified as described previously. Protein concentration was determined by means of the Bradford assay.
as §1
(§3) For understanding the effects of pharmacological interventions based on GST inhibitors, it is important to know the selectivity among the numerous GSTs. […] All values were determined with CDNB, which is a common substrate for all the enzymes.

[3] = test system: HsaGST S1-1; design: method as in PMID 25603235; conditions: 1 mM GSH, 1 mM CDNB, pH 6.5, 30°C, cited from earlier work; for Inhibition (%) of HsaGST S1-1: 10 μM inhibitor
[4] = test system: HsaGST P1-1; design: method as in PMID 23769903; conditions: 3.3 μM inhibitor, 1 mM GSH, 1 mM CDNB, pH 6.5, 30°C; cited from earlier work
[5] = molecular target: T3, HsaGST M2-2 (Homo sapiens, UniProt P28161); test: Inhibition of HsaGST M2-2 CDNB activity; assay type: biochemical; conditions: 1 mM GSH, 1 mM CDNB, pH 6.5, 30°C; for IC50: CDNB activity, read-out: IC50 HsaGST M2-2
T3 construct: made in house
T3 sequence (P28161 1-218): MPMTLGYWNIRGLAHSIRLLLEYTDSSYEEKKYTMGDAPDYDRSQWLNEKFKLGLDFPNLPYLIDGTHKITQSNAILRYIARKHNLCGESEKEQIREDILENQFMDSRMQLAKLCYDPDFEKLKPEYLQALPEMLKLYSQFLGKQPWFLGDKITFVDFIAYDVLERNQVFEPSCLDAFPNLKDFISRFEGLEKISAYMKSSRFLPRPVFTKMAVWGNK
Method: as §2, §1, §3

[6] = molecular target: T1, EcaGST A3-3; test: Inhibition of EcaGST A3-3 steroid double-bond isomerase activity with Δ^5-AD; assay type: biochemical, Equus ferus caballus; conditions: for IC50 EcaGST A3-3, substrate Δ^5-AD: 0.1 mM Δ^5-AD, 25 mM sodium phosphate pH 8.0, 30°C
[7] = 10 μM inhibitor, 1 mM GSH, 1 mM CDNB, sodium phosphate pH 6.5, 30°C

Compound: CCN(CCCc1ccccc1)CCCc1ccccc1 [Alverine citrate]
- inhibition at 10 µM [1, 7]: 31 ± 17%

Compound: NCC(=O)CCC(=O)O [Aminolevulinic acid hydrochloride]
- inhibition at 10 µM [1, 7]: 32 ± 11%

Compound: O=C1c2c(O)cccc2Cc2cccc(O)c21 [Anthralin]
- IC50 [2]: 0.72 µM
- inhibition at 10 µM ([2]; pH 6.5, 10 μM inhibitor, read-out: Inhibition (%) of HsaGST A3-3): 88%
- Inhibition (%) of HsaGST S1-1 [3]: 84%
- IC50 ([3]; CDNB activity): 24 µM
- inhibition at 10 µM [1, 7]: 96 ± 1.8%
- IC50 ([1]; 1 mM CDNB, 1 mM GSH): 2.1 ± 0.27 µM
- Hill coefficient, CDNB inhibition ([1]; dose-response curve, substrate CDNB, mean ± SD): 2.0±0.43
- Inhibition (%) of HsaGST P1-1 [4]: 22%
- inhibition at 10 µM ([5]; 10 μM inhibitor, read-out: Inhibition (%) of HsaGST M2-2): 80%
- IC50 [6]: 0.085 ± 0.0048 µM
- IC50 EcaGST A3-3, substrate Δ^5-AD ([6]; 1 mM GSH): submicromolar range
- Ki ([6]; Ki, EcaGST A3-3, substrate Δ^5-AD, Δ^5-AD varied, 1 mM GSH, 0.09 μM inhibitor): 0.09 µM and 0.093 µM
- Hill coefficient, Δ^5-AD inhibition ([6]; dose-response curve, substrate Δ^5-AD, mean ± SD): 1.9±0.19
- Times more potent with Δ^5-AD as substrate than with CDNB ([6]; ratio of IC50 values CDNB vs Δ^5-AD, EcaGST A3-3): approximately 25 times
- Inhibition modality, substrate Δ^5-AD ([6]; Δ^5-AD varied, 1 mM GSH): Competitive

Compound: OC[C@H]1O[C@H]([S-])[C@H](O)[C@@H](O)[C@@H]1O.[Au+] [Aurothioglucose]
- Inhibition (%) of HsaGST A3-3 ([2]; 10 μM inhibitor): 96%
- IC50 [2]: 0.91 µM
- Inhibition (%) of HsaGST S1-1 [3]: 24%
- Inhibition (%) of EcaGST A3-3 [1, 7]: 78 ± 28%
- IC50 ([1]; 1 mM CDNB, 1 mM GSH): 0.85 ± 0.12 µM
- Inhibition (%) of HsaGST P1-1 [4]: < 4%
- Inhibition (%) of HsaGST M2-2 ([5]; 10 μM inhibitor): 85%
- IC50 [5]: 12 µM
- IC50 EcaGST A3-3, substrate Δ^5-AD ([6]; 1 mM GSH): Anomalous curve

Compound: O=C(Nc1ccc(C(=O)O)c(O)c1)c1ccccc1 [Benzoylpas]
- IC50 [5]: 2.5 µM

Compound: O=[N+]([O-])c1ccc(Cl)c([N+](=O)[O-])c1 [CDNB, 1-chloro-2,4-dinitrobenzene]
- Km ([1]; read-out: Km of substrate CDNB with EcaGST A3-3, 1 mM GSH, fitted with and without ethacrynic acid): 1260 ± 82 µM

Compound: CCCCCCCCCCCCCCCC(=O)OC[C@@H](NC(=O)C(Cl)Cl)[C@H](O)c1ccc([N+](=O)[O-])cc1 [Chloramphenicol palmitate]
- inhibition at 10 µM [1, 7]: 40 ± 1%

Compound: CC[C@H]1OC(=O)[C@H](C)[C@@H](O[C@H]2C[C@@](C)(OC)[C@@H](O)[C@H](C)O2)[C@H](C)[C@@H](O[C@@H]2O[C@H](C)C[C@H](N(C)C)[C@H]2O)[C@](C)(OC)C[C@@H](C)C(=O)[C@H](C)[C@@H](O)[C@]1(C)O [Clarithromycin]
- inhibition at 10 µM [1, 7]: 36 ± 7%

Compound: Oc1c(I)cc(Cl)c2cccnc12 [Clioquinol]
- inhibition at 10 µM [1, 7]: 64 ± 21%

Compound: CC(C)/N=c1\cc2n(-c3ccc(Cl)cc3)c3ccccc3nc-2cc1Nc1ccc(Cl)cc1 [Clofazimine]
- inhibition at 10 µM [1, 7]: 52 ± 14%

Compound: C[C@]12CC[C@@H]3c4ccc(OS(=O)(=O)O)cc4CC[C@H]3[C@@H]1CCC2=O [Estropipate]
- inhibition at 10 µM [1, 7]: 37 ± 23%

Compound: C=C1C[C@@H]2[C@H](CC[C@]3(C)C(=O)CC[C@@H]23)[C@@]2(C)C=CC(=O)C=C12 [Exemestane]
- inhibition at 10 µM [1, 7]: 41 ± 12%

Compound: CC(C)n1c(/C=C/C(O)CC(O)CC(=O)O)c(-c2ccc(F)cc2)c2ccccc21 (stereo not shown) [Fluvastatin sodium]
- inhibition at 10 µM [1, 7]: 31 ± 24%

Compound: OCCOCCN1CCN(C(c2ccccc2)c2ccc(Cl)cc2)CC1 (stereo not shown) [Hydroxyzine pamoate]
- inhibition at 10 µM [1, 7]: ≤ 30%
- IC50 [5]: 0.76 µM
